The source of these data is patent publication US9561231B2 (AbbVie Inc., priority 2012, dated 2017).

Assay [1] has as its target T1, first (BD1: amino acids K57-E168) bromodomain of BRD4 (Homo sapiens, UniProt O60885).
T1 construct: His-tagged first (BD1: amino acids K57-E168)
Put plainly: TR-FRET bromodomain binding assay, BRD4 BD1. Particulars: TR-FRET assay protocol (A-G, compound concentration range); Ki calculated from IC50, probe Kd and probe concentration; read-out: TR-FRET Binding Ki: BRD4 (BDI_K57-E168). The method, boiled down:
(§1)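 His-tagged BRD4 bromodomain competed against an Alexa647-labeled BET-inhibitor probe by TR-FRET in 20 mM sodium phosphate pH 6.0, 50 mM NaCl, 1 mM EDTA, 0.01% Triton X-100, 1 mM DTT.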

Assay [2] addresses T2, second (BD2: amino acids E352-E168) bromodomain of BRD4 (Homo sapiens, UniProt O60885).
T2 construct: protocol
Description: TR-FRET bromodomain binding assay, BRD4 BD2. Particulars: TR-FRET assay protocol (A-G, compound concentration range); Ki calculated from IC50, probe Kd and probe concentration; read-out: TR-FRET Binding Ki: BRD4 (BDII_E352-M457). The procedure, abridged:
as §1

With `CN(C)c1cccc(-c2cc(=O)n(C)nc2-c2ccccc2Oc2ccccc2)c1` [Example 209, 5-[3-(dimethylamino)phenyl]-2-methyl-6-(2-phenoxyphenyl)pyridazin-3(2H)-one], the values for the Ki in assay [1] and in assay [2] were above 5490 nM and 8480 nM, respectively.
In the same order, the values of `COc1ccc(F)c(-c2cc(=O)n(C)nc2-c2ccccc2Oc2ccccc2)c1` [Example 210, 5-(2-fluoro-5-methoxyphenyl)-2-methyl-6-(2-phenoxyphenyl)pyridazin-3(2H)-one] are 9870 nM and 15200 nM.
In the same order, the values of `Cc1ccc(-c2cc(=O)n(C)nc2-c2ccccc2Oc2ccccc2)o1` [Example 211, 2-methyl-5-(5-methylfuran-2-yl)-6-(2-phenoxyphenyl)pyridazin-3(2H)-one] are 2150 nM and 1520 nM.
In the same order, the values of `CCn1cc(-c2cc(=O)n(C)nc2-c2ccccc2Oc2ccccc2)cn1` [Example 212, 5-(1-ethyl-1H-pyrazol-4-yl)-2-methyl-6-(2-phenoxyphenyl)pyridazin-3(2H)-one] are 89.8 nM and 117 nM.
Turning to `COc1cnccc1-c1cc(=O)n(C)nc1-c1ccccc1Oc1ccccc1` [Example 213, 5-(3-methoxypyridin-4-yl)-2-methyl-6-(2-phenoxyphenyl)pyridazin-3(2H)-one], the Ki in assay [1] is above 13000 nM; in assay [2], 15200 nM.
With `Cn1nc(-c2ccccc2Oc2ccccc2)c(-c2cc3ccccc3n2C)cc1=O` [Example 214, 2-methyl-5-(1-methyl-1H-indol-2-yl)-6-(2-phenoxyphenyl)pyridazin-3(2H)-one], the Ki in assay [1] is above 13000 nM; in assay [2], 10400 nM.
For `CN(C)c1cncc(-c2cc(=O)n(C)nc2-c2ccccc2Oc2ccccc2)c1` [Example 216, 5-[5-(dimethylamino)pyridin-3-yl]-2-methyl-6-(2-phenoxyphenyl)pyridazin-3(2H)-one], in that order: 719 nM and 462 nM.
For the molecule `Cn1nc(-c2ccccc2Cc2ccccc2)ccc1=O` [Example 222, 6-(2-benzylphenyl)-2-methylpyridazin-3(2H)-one], the Ki in assay [1] is 6840 nM; in assay [2], 1360 nM.
As for `Cn1cc(-c2cc(Nc3ccccn3)ccc2Oc2ccccc2)ccc1=O` [Example 254, 1-methyl-5-[2-phenoxy-5-(pyridin-2-ylamino)phenyl]pyridin-2(1H)-one], the Ki is 324 nM in assay [1] and 3270 nM in assay [2].
In the same order, the values of `Cn1cc(-c2cc(NS(C)(=O)=O)ccc2Oc2ccc(F)cc2F)c(Cl)cc1=O` [Example 269, N-[3-(4-chloro-1-methyl-6-oxo-1,6-dihydropyridin-3-yl)-4-(2,4-difluorophenoxy)phenyl]methanesulfonamide] are 246 nM and 204 nM.
In the same order, the values of `CNC(=O)c1cc(=O)n(C)cc1-c1cc(NS(C)(=O)=O)ccc1Oc1ccc(F)cc1F` [Example 276, 5-{2-(2,4-difluorophenoxy)-5-[(methylsulfonyl)amino]phenyl}-N,1-dimethyl-2-oxo-1,2-dihydropyridine-4-carboxamide] are 916 nM and 570 nM.
For `Cn1cc(-c2cc(NS(C)(=O)=O)ccc2Oc2ccc(F)cc2F)cc(Cl)c1=O` [Example 282, N-[3-(5-chloro-1-methyl-6-oxo-1,6-dihydropyridin-3-yl)-4-(2,4-difluorophenoxy)phenyl]methanesulfonamide], the figures for the Ki in assay [1] and in assay [2] were 20.4 nM and 99.7 nM, respectively.
Turning to `CCS(=O)(=O)Nc1ccc(Oc2ccc(F)cc2F)c(-c2cn(C)c(=O)cc2OCCN(C)C)c1` [Example 288, N-(4-(2,4-difluorophenoxy)-3-(4-(2-(dimethylamino)ethoxy)-1-methyl-6-oxo-1,6-dihydropyridin-3-yl)phenyl)ethanesulfonamide], the Ki in assay [1] was 190 nM; in assay [2], 551 nM.
`CCOc1cc(=O)n(C)cc1-c1cc(NC(=O)C2CCN(c3ccccc3)C2=O)ccc1Oc1ccc(F)cc1F` (stereo not shown) [Example 295, N-[4-(2,4-difluorophenoxy)-3-(4-ethoxy-1-methyl-6-oxo-1,6-dihydropyridin-3-yl)phenyl]-2-oxo-1-phenylpyrrolidine-3-carboxamide]: the Ki is 275 nM in assay [1] and 93 nM in assay [2].
As to `CCOc1cc(=O)n(C)cc1-c1cc(NC(=O)CC(C)(C)C)ccc1Oc1ccc(F)cc1F` [Example 296, N-[4-(2,4-difluorophenoxy)-3-(4-ethoxy-1-methyl-6-oxo-1,6-dihydropyridin-3-yl)phenyl]-3,3-dimethylbutanamide], the figures for the Ki in assay [1] and in assay [2] were 195 nM and 104 nM, respectively.
In the same order, the values of `CCOc1cc(=O)n(C)cc1-c1cc(NC(=O)C2(c3ccccc3)CC2)ccc1Oc1ccc(F)cc1F` [Example 299, N-[4-(2,4-difluorophenoxy)-3-(4-ethoxy-1-methyl-6-oxo-1,6-dihydropyridin-3-yl)phenyl]-1-phenylcyclopropanecarboxamide] are 149 nM and 35.2 nM.
In the same order, the values of `CCOc1cc(=O)n(C)cc1-c1cc(NC(=O)c2ccc(OC(C)C)cc2)ccc1Oc1ccc(F)cc1F` [Example 301, N-[4-(2,4-difluorophenoxy)-3-(4-ethoxy-1-methyl-6-oxo-1,6-dihydropyridin-3-yl)phenyl]-4-(propan-2-yloxy)benzamide] are 61.8 nM and 55.6 nM.
In the same order, the values of `CCOc1cc(=O)n(C)cc1-c1cc(NC(=O)c2ccccc2CCc2ccccc2)ccc1Oc1ccc(F)cc1F` [Example 302, N-[4-(2,4-difluorophenoxy)-3-(4-ethoxy-1-methyl-6-oxo-1,6-dihydropyridin-3-yl)phenyl]-2-(2-phenylethyl)benzamide] are 209 nM and 47.2 nM.
On to `CCOc1cc(=O)n(C)cc1-c1cc(NC(=O)c2ccc(N(CC)CC)cc2)ccc1Oc1ccc(F)cc1F` [Example 303, 4-(diethylamino)-N-[4-(2,4-difluorophenoxy)-3-(4-ethoxy-1-methyl-6-oxo-1,6-dihydropyridin-3-yl)phenyl]benzamide], for which the Ki is 233 nM in assay [1] and 201 nM in assay [2].
For `CCOc1cc(=O)n(C)cc1-c1cc(NC(=O)c2ccc(-c3ccccc3)cc2)ccc1Oc1ccc(F)cc1F` [Example 304, N-[4-(2,4-difluorophenoxy)-3-(4-ethoxy-1-methyl-6-oxo-1,6-dihydropyridin-3-yl)phenyl]biphenyl-4-carboxamide], in that order: 195 nM and 359 nM.
Regarding `CCOc1cc(=O)n(C)cc1-c1cc(NCC(C)(C)C)ccc1Oc1ccc(F)cc1F` [Example 305, 5-{2-(2,4-difluorophenoxy)-5-[(2,2-dimethylpropyl)amino]phenyl}-4-ethoxy-1-methylpyridin-2(1H)-one], the Ki in assay [1] was 557 nM; in assay [2], 271 nM.
For `CCOc1cc(=O)n(C)cc1-c1cc(NCCC(C)(C)C)ccc1Oc1ccc(F)cc1F` [Example 306, 5-{2-(2,4-difluorophenoxy)-5-[(3,3-dimethylbutyl)amino]phenyl}-4-ethoxy-1-methylpyridin-2(1H)-one], the Ki in assay [1] is 542 nM; in assay [2] it was 349 nM.
Regarding `CCOc1cc(=O)n(C)cc1-c1cc(NS(=O)(=O)c2ccc(S(C)(=O)=O)cc2)ccc1Oc1ccc(F)cc1F` [Example 307, N-[4-(2,4-difluorophenoxy)-3-(4-ethoxy-1-methyl-6-oxo-1,6-dihydropyridin-3-yl)phenyl]-4-(methylsulfonyl)benzenesulfonamide], the Ki in assay [1] is 94.9 nM; in assay [2], 41.6 nM.
For `CCOc1cc(=O)n(C)cc1-c1cc(NS(=O)(=O)c2ccc(OC(F)(F)F)cc2)ccc1Oc1ccc(F)cc1F` [Example 308, N-[4-(2,4-difluorophenoxy)-3-(4-ethoxy-1-methyl-6-oxo-1,6-dihydropyridin-3-yl)phenyl]-4-(trifluoromethoxy)benzenesulfonamide], the Ki in assay [1] is 318 nM; in assay [2], 65.9 nM.
In the same order, the values of `CCOc1cc(=O)n(C)cc1-c1cc(NS(=O)(=O)c2ccc(-c3ccccc3)cc2)ccc1Oc1ccc(F)cc1F` [Example 309, N-[4-(2,4-difluorophenoxy)-3-(4-ethoxy-1-methyl-6-oxo-1,6-dihydropyridin-3-yl)phenyl]biphenyl-4-sulfonamide] are 359 nM and 151 nM.
`CCOc1cc(=O)n(C)cc1-c1cc(NS(=O)(=O)C[C@]23CC[C@H](CC2=O)C3(C)C)ccc1Oc1ccc(F)cc1F` [Example 310, N-[4-(2,4-difluorophenoxy)-3-(4-ethoxy-1-methyl-6-oxo-1,6-dihydropyridin-3-yl)phenyl]-1-[(1S,4R)-7,7-dimethyl-2-oxobicyclo[2.2.1]hept-1-yl]methanesulfonamide]: the Ki is 200 nM in assay [1] and 38.9 nM in assay [2].
On to `Cc1cc(-c2ccc(-c3ccc(=O)n(C)c3)c(OCC3CC3)c2)[nH]n1` [Example 312, 5-[2-(cyclopropylmethoxy)-4-(3-methyl-1H-pyrazol-5-yl)phenyl]-1-methylpyridin-2(1H)-one], for which the Ki in assay [1] was 353 nM; in assay [2] it was 2150 nM.
For the molecule `CCS(=O)(=O)c1ccc(Oc2ccccc2C#CCO)c(-c2cn(C)c(=O)cc2Cl)c1` [Example 314, 4-chloro-5-{5-(ethylsulfonyl)-2-[2-(3-hydroxyprop-1-yn-1-yl)phenoxy]phenyl}-1-methylpyridin-2(1H)-one], the Ki in assay [1] is 642 nM; in assay [2], 229 nM.
As to `CCS(=O)(=O)c1ccc(Oc2ccc(F)cc2F)c(-c2cn(C)c(=O)cc2Oc2ccc(F)cc2F)c1` [Example 317, 4-(2,4-difluorophenoxy)-5-[2-(2,4-difluorophenoxy)-5-(ethylsulfonyl)phenyl]-1-methylpyridin-2(1H)-one], the inhibitory constant (Ki) in assay [1] is 377 nM; in assay [2] it was 182 nM.

One may read the Ki as the equilibrium dissociation constant of an inhibitor or competing ligand from its target.
